Where a name gives a salt, the structure may show the parent alone.
Target: T1, NK1 receptor (Homo sapiens, UniProt P25103)
T1 construct: Measurement of NK1 Receptor Mediated Intracellular [Ca^2+]; Mobilization in U251 MG Cells Using FLIPR; endogenous in cells; host or cells: U251 MG cells
Experiment: NK1 receptor mediated intracellular [Ca2+] mobilization in U251 MG cells using FLIPR
Assay type: cell-based
Settings: antagonist potency against Substance P (EC80), normalized to 100 nM Aprepitant, read-out: U251MG (FLIPR pIC50) (converted)
Procedure: Measurement of NK1 Receptor Mediated Intracellular [Ca^2+] Mobilization in U251 MG Cells Using FLIPR
U251 MG cells were seeded into black walled clear-bottom 384-well plates (Greiner Bio-One GmbH, Frickenhausen, Germany) at a density of 15,000 cells/well in 50 μl culture medium and cultured overnight in a 37° C. 5% CO2 incubator. The cells were then loaded with the calcium sensitive dye Fluo-4 (Invitrogen) at 1 μM in buffer, containing 0.04%
Pluronic F-127 (Sigma-Aldrich), and 2.5 mM probenecid (Sigma-Aldrich) for 60 min in a humidified atmosphere of 5% CO2. Thereafter, cells were washed three times in washing buffer containing 20 mM HEPES and 2.5 mM probenecid pH 7.3. Serial dilutions of test compounds in assay buffer containing 2% dimethyl sulfoxide (final concentration in the cell plate is 0.5% DMSO) and/or agonist were then automatically pipetted into each test well, and the peak fluorescence intensity was recorded (lex, 488 nm; lem, 540 nm) by the FLIPR instrument (Molecular Devices) for approximately 5 min. To measure antagonist potency, cell plates were first incubated with the test compound and intracellular fluorescence recorded for 5 minutes to check a potential agonist effect of the test compound. Cell plates were quickly removed from the FLIPR instrument and incubated for additional 10 minutes at 37° C. before being moved back to the FLIPR instrument for Substance P (EC80) addition. The response was measured as the peak relative fluorescence change after agonist addition.
The IC50 value is defined as the molar concentration of a test compound that produces a response midway between the fitted top and the fitted bottom. pIC50=−log IC50
Formula is listed as follows: Fit(% Effect calculated)=(A+((B−A)/(1+((C/X)^D)))) • A: bottom value • B: top value • C: […] • D: Hill slope coefficient
Ref: Sullivan E, Tucker E M, and Dale I L. Measurement of [Ca^2+] using the Fluorometric Imaging Plate Reader (FLIPR). Methods Mol Biol 114:125-133, 1999.
Compounds of the present invention were tested according to example 120.

T1 sequence (P25103 whole entry): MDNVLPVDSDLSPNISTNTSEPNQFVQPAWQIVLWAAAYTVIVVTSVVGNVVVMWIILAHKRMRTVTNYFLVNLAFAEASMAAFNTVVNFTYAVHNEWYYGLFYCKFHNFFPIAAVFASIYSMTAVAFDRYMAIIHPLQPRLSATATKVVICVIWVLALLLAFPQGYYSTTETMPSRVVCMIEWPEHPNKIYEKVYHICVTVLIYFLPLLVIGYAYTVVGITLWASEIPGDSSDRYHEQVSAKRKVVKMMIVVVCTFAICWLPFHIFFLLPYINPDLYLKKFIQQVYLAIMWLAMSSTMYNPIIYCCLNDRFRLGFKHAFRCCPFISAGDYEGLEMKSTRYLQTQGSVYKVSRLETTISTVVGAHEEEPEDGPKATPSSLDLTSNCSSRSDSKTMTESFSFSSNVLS

Row | Structure (SMILES) | IC50
1 | Cc1ccccc1C1C2CC(CCO)C(=O)N2CCN1C(=O)N(C)C(CCO)c1cc(C(F)(F)F)cc(C(F)(F)F)c1 (single isomer, unassigned) [Compound 35, N-{1-[3,5-bis(trifluoromethyl)phenyl]-3-hydroxypropyl}-7-(2-hydroxyethyl)-N-methyl-1-(2-methylphenyl)-6-oxo-octahydropyrrolo[1,2-a]piperazine-2-carboxamide] | 0.2 nM
2 | Cc1ccccc1C1C2CCC(=O)N2CCN1C(=O)N(C)Cc1cccc(C(F)(F)F)c1 (single isomer, unassigned) [Compound 6, N-methyl-1-(2-methylphenyl)-6-oxo-N-{[3-(trifluoromethyl)phenyl]methyl}-Octahydropyrrolo[1,2-a]piperazine-2-carboxamide] | > 100 nM
3 | Cc1ccccc1C1C2CC(CO)C(=O)N2CCN1C(=O)N(C)Cc1cc(C(F)(F)F)cc(C(F)(F)F)c1 (single isomer, unassigned) [Compound 19, N-{[3,5-bis(trifluoromethyl)phenyl]methyl}-7-(hydroxymethyl)-N-methyl-1-(2-methylphenyl)-6-oxo-octahydropyrrolo[1,2-a]piperazine-2-carboxamide] | 3.72 nM
4 | Cc1ccccc1C1C2CCC(=O)N2CCN1C(=O)N(C)Cc1cc(F)cc(C(F)(F)F)c1 (single isomer, unassigned) [Compound 4, N-{[3-fluoro-5-(trifluoromethyl)phenyl]methyl}-N-methyl-1-(2-methylphenyl)-6-oxo-octahydropyrrolo[1,2-a]piperazine-2-carboxamide] | 81.3 nM
5 | Cc1ccccc1C1C2CC(CN3CCOCC3)C(=O)N2CCN1C(=O)N(C)[C@H](C)c1cc(C(F)(F)F)cc(C(F)(F)F)c1 (single isomer, unassigned) [Compound 71] | 28.2 nM
6 | Cc1ccccc1C1C2CCC(=O)N2CCN1C(=O)N(C)Cc1cccc(C(F)(F)F)c1 (single isomer, unassigned) [Compound 5, N-methyl-1-(2-methylphenyl)-6-oxo-N-{[3-(trifluoromethyl)phenyl]methyl}-octahydropyrrolo[1,2-a]piperazine-2-carboxamide] | 7.41 nM
7 | Cc1ccccc1C1C2CC(CO)C(=O)N2CCN1C(=O)N(C)Cc1cc(C(F)(F)F)cc(C(F)(F)F)c1 (single isomer, unassigned) [Compound 20, N-{[3,5-bis(trifluoromethyl)phenyl]methyl}-7-(hydroxymethyl)-N-methyl-1-(2-methylphenyl)-6-oxo-octahydropyrrolo[1,2-a]piperazine-2-carboxamide] | 1.66 nM
8 | Cc1ccccc1C1C2CC(C)(C(=O)O)C(=O)N2CCN1C(=O)N(C)Cc1cc(C(F)(F)F)cc(C(F)(F)F)c1 (centres unmarked) [Compound 8, 2-({[3,5-bis(trifluoromethyl)phenyl]methyl}(methyl)carbamoyl)-7-methyl-1-(2-methylphenyl)-6-oxo-octahydropyrrolo[1,2-a]piperazine-7-carboxylic acid] | 61.7 nM
9 | Cc1cc(C)cc(CN(C)C(=O)N2CCN3C(=O)CCC3C2c2ccccc2C)c1 (single isomer, unassigned) [Compound 1, N-[(3,5-dimethylphenyl)methyl]-N-methyl-1-(2-methylphenyl)-6-oxo-octahydropyrrolo[1,2-a]piperazine-2-carboxamide] | 6.46 nM
10 | Cc1ccccc1C1C2CC(CO)CN2CCN1C(=O)N(C)[C@H](C)c1cc(C(F)(F)F)cc(C(F)(F)F)c1 (single isomer, unassigned) [Compound 68] | 4.47 nM
11 | Cc1ccccc1C1C2CCC(=O)N2CCCN1C(=O)N(C)Cc1cc(C(F)(F)F)cc(C(F)(F)F)c1 (mixture of isomers) [Compound 7, N-{[3,5-bis(trifluoromethyl)phenyl]methyl}-N-methyl-1-(2-methylphenyl)-7-oxo-octahydro-1H-pyrrolo[1,2-a][1,4]diazepine-2-carboxamide] | 1.07 nM
12 | Cc1ccccc1[C@H]1[C@@H]2CC(CCO)(CCO)C(=O)N2CCN1C(=O)N(C)[C@@H](CO)c1cc(C(F)(F)F)cc(C(F)(F)F)c1 [Compound 87, (1S,8aS)-N-((R)-1-(3,5-bis(trifluoromethyl)phenyl)-2-hydroxyethyl)-7,7-bis(2-hydroxyethyl)-N-methyl-6-oxo-1-o-tolylhexahydropyrrolo[1,2-a]pyrazine-2(1H)-carboxamide] | 0.204 nM
13 | Cc1ccccc1C1C2CC(CCO)C(=O)N2CCN1C(=O)N(C)C(CCO)c1cc(C(F)(F)F)cc(C(F)(F)F)c1 (racemic) [Compound 33, N-{1-[3,5-bis(trifluoromethyl)phenyl]-3-hydroxypropyl}-7-(2-hydroxyethyl)-N-methyl-1-(2-methylphenyl)-6-oxo-octahydropyrrolo[1,2-a]piperazine-2-carboxamide] | 0.158 nM
14 | Cc1ccccc1C1C2CC(CO)C(=O)N2CCN1C(=O)N(C)Cc1cc(C(F)(F)F)cc(C(F)(F)F)c1 (single isomer, unassigned) [Compound 23, N-{[3,5-bis(trifluoromethyl)phenyl]methyl}-7-(hydroxymethyl)-N-methyl-1-(2-methylphenyl)-6-oxo-octahydropyrrolo[1,2-a]piperazine-2-carboxamide] | 0.0776 nM

More lines, now with the values ahead:

Row | IC50 | Structure (SMILES)
15 | 30.2 nM | Cc1ccccc1C1C2CC(CCO)(CCO)CN2CCN1C(=O)N(C)Cc1cc(C(F)(F)F)cc(C(F)(F)F)c1 (single isomer, unassigned) [Compound 65, N-{[3,5-bis(trifluoromethyl)phenyl]methyl}-7,7-bis(2-hydroxyethyl)-N-methyl-1-(2-methylphenyl)-octahydropyrrolo[1,2-a]piperazine-2-carboxamide]
16 | 0.112 nM | Cc1ccccc1[C@H]1[C@@H]2CC(CCO)(CCO)C(=O)N2CCN1C(=O)N(C)C(CCO)c1cc(C(F)(F)F)cc(C(F)(F)F)c1 (single isomer, unassigned) [Compound 82]
17 | 0.229 nM | Cc1ccccc1C1C2CCC(=O)N2CCN1C(=O)N(C)Cc1cc(C(F)(F)F)cc(C(F)(F)F)c1 (racemic) [Compound 16, N-{[3,5-bis(trifluoromethyl)phenyl]methyl}-N-methyl-1-(2-methylphenyl)-6-oxo-octahydropyrrolo[1,2-a]piperazine-2-carboxamide]
18 | 2.88 nM | Cc1ccccc1C1C2CC(CN3CCOCC3)C(=O)N2CCN1C(=O)N(C)Cc1cc(C(F)(F)F)cc(C(F)(F)F)c1 (single isomer, unassigned) [Compound 39]
19 | 0.0955 nM | Cc1ccccc1C1C2CC(CCO)(CCO)C(=O)N2CCN1C(=O)N(C)Cc1cc(C(F)(F)F)cc(C(F)(F)F)c1 (racemic) [Compound 42, N-{[3,5-bis(trifluoromethyl)phenyl]methyl}-7,7-bis(2-hydroxyethyl)-N-methyl-1-(2-methylphenyl)-6-oxo-octahydropyrrolo[1,2-a]piperazine-2-carboxamide]
20 | 0.955 nM | Cc1ccccc1C1C2CCCN2CCN1C(=O)N(C)Cc1cc(C(F)(F)F)cc(C(F)(F)F)c1 (single isomer, unassigned) [Compound 62, N-{[3,5-bis(trifluoromethyl)phenyl]methyl}-N-methyl-1-(2-methylphenyl)-octahydropyrrolo[1,2-a]piperazine-2-carboxamide]
21 | 0.12 nM | Cc1ccccc1C1C2CC(CN3CCOCC3)C(=O)N2CCN1C(=O)N(C)Cc1cc(C(F)(F)F)cc(C(F)(F)F)c1 (single isomer, unassigned) [Compound 51]
22 | 0.107 nM | Cc1ccccc1C1C2CC(CN3CCOCC3)C(=O)N2CCN1C(=O)N(C)[C@H](C)c1cc(C(F)(F)F)cc(C(F)(F)F)c1 (single isomer, unassigned) [Compound 73]
23 | 58.9 nM | Cc1ccccc1C1C2CC(CO)CN2CCN1C(=O)N(C)Cc1cc(C(F)(F)F)cc(C(F)(F)F)c1 (single isomer, unassigned) [Compound 27, N-{[3,5-bis(trifluoromethyl)phenyl]methyl}-7-(hydroxymethyl)-N-methyl-1-(2-methylphenyl)-octahydropyrrolo[1,2-a]piperazine-2-carboxamide; methanesulfonic acid salt]
24 | 0.204 nM | Cc1ccccc1C1C2CC(CO)CN2CCN1C(=O)N(C)[C@H](C)c1cc(C(F)(F)F)cc(C(F)(F)F)c1 (single isomer, unassigned) [Compound 67]
25 | 77.6 nM | Cc1cc(C)cc(CN(C)C(=O)N2CCN3C(=O)CCC3C2c2ccccc2C)c1 (single isomer, unassigned) [Compound 2, N-[(3,5-dimethylphenyl)methyl]-N-methyl-1-(2-methylphenyl)-6-oxo-octahydropyrrolo[1,2-a]piperazine-2-carboxamide]
26 | 8.13 nM | Cc1ccccc1C1C2CC(CN3CCOCC3)C(=O)N2CCN1C(=O)N(C)[C@H](C)c1cc(C(F)(F)F)cc(C(F)(F)F)c1 (single isomer, unassigned) [Compound 72]
